Measured values published in patent US9815851B2, “Pyrrolo carboxamides as modulators of orphan nuclear receptor RAR-related orphan receptor-gamma (RORγ, NR1F3) activity and for the treatment of chronic inflammatory and autoimmune diseases” (PHENEX PHARMACEUTICALS AG, priority 2011, dated 2017).
Read-outs that look alike come from different tables or passages of the source.

What was measured:
[1] = target: T1, RORγ ligand binding domain (LBD) (Homo sapiens, UniProt P51449); assay: TR-FRET Activity Assay (ligand sensing, RORγ-LBD / coactivator peptide interaction, LANCE); assay type: biochemical
T1 construct: made in house; host or cells: E. coli BL-21 (BL3), vector pDEST15
T1 sequence (P51449 269-508 limits assumed): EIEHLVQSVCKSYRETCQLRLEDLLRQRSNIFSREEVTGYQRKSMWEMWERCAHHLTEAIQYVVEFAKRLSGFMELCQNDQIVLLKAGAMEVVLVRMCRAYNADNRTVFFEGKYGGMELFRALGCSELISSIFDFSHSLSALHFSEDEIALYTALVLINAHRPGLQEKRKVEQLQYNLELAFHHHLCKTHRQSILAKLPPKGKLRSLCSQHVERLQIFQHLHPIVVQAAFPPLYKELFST

RORγ = target: T2, RORγ (UniProt P51449); assay: RORγ Gal4 Reporter Gene Assay in 293T cells (firefly and renilla luciferase); assay type: cell-based, human
T2 sequence (P51449 1-518): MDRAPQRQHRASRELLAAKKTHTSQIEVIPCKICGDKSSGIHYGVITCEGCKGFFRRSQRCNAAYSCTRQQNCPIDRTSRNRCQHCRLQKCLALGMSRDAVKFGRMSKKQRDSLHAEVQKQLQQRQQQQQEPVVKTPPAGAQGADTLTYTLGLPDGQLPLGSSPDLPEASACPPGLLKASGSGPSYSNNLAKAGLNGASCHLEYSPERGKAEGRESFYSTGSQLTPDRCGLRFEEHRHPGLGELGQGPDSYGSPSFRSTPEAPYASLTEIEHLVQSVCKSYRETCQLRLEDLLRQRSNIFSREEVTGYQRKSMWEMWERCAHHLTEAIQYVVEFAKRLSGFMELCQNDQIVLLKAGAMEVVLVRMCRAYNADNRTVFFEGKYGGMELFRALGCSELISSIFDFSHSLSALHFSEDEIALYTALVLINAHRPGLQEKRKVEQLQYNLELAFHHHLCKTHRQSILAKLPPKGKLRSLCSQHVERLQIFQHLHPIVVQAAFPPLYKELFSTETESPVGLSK

[2] = first value of the cell FRET/FF/REN, TR-FRET activity assay, read-out: pIC50 (FRET) (converted)
[3] = second value of the cell, Gal4 reporter gene assay in 293T cells, firefly luciferase
[4] = third value of the cell, Gal4 reporter gene assay in 293T cells, renilla normalised luciferase

Compound	IC50 [1, 2] [nM]	pIC50 (FF) (RORγ; [3])	pIC50 (REN) (RORγ; [4])	IC50 [1] [nM]	pIC50 (FF) (RORγ)	pIC50 (REN) (RORγ)
Cc1c(C(=O)NC2COC2)cc(-c2ccc(S(=O)(=O)NC(C)(C)C)c(C(C)(C)C)c2)n1CC1CCCCC1 [9/4]	631	7.1	7.2	–	–	–
CC(C)(C)NS(=O)(=O)c1ccc(-c2cc(C(=O)NC3CCOCC3)c(Cl)n2CC2CCCCC2)c2ccccc12 [22/1]	–	–	–	158	6.8/8.4/8.4	6.8/8.4/8.4
Cc1c(C(=O)N[C@H]2C[C@H](C(=O)O)C2)cc(-c2ccc(-c3nnc(C(C)(C)C)o3)c(C(C)(C)C)c2)n1CC1CCCCC1 [17/252]	1580	6.5	6.6	–	–	–
Cc1c(C(=O)N(C)CC2(O)CCOCC2)cc(-c2cc(C(C)(C)C)c3c(c2)C2(CCO3)CC2)n1CC1CCCCC1 [17/39]	–	–	–	398	6.4/6.9/6.8	6.4/6.9/6.8
Cc1c(C(=O)NC2CC(=O)C2)cc(-c2cc(C(C)(C)C)c3c(c2)C2(CCO3)CC2)n1CC1CCCCC1 [17/21]	–	–	–	631	6.2/7.0/6.9	6.2/7.0/6.9
Cc1c(C(=O)N[C@H]2C[C@H](C(=O)O)C2)cc(-c2cc(C(=O)NC(C)(C)C(F)(F)F)cc(C3(C)CC3)c2)n1CC1CCCCC1 [17/360]	6310	7.3	7.4	–	–	–
Cc1c(C(=O)NCC2(C(=O)NCCCO)CCOCC2)cc(-c2cc(C(C)(C)C)c3c(c2)C2(CCO3)CC2)n1CC1CCCCC1 [17/34]	1580	7.0	6.9	–	–	–
Cc1c(C(=O)NC2(C#N)CC2)cc(-c2cc(C(C)(C)C)cc(C(C)(C)C)c2)n1CC1CCCCC1 [1/12]	1260	6.4	6.5	–	–	–
Cc1c(C(=O)NCC(C)(C)C(=O)O)cc(-c2ccc(S(=O)(=O)NC(C)(C)C)c(OC(F)(F)F)c2)n1CC1CCCCC1 [17/173]	316	7.3	7.3	–	–	–
Cc1c(C(=O)N2CC(N3CCOCC3)C2)cc(-c2cc(C(C)(C)C)cc(C3(C)CC3)c2)n1CC1CCCCC1 [17/344]	631	7.3	7.5	–	–	–
Cc1c(C(=O)NC2CCOCC2)cc(-c2ccc(-c3nnc(C(C)(C)C)o3)c(C(C)(C)C)c2)n1CC1CCCCC1 [17/251]	–	–	–	501	6.3/6.9/6.9	6.3/6.9/6.9
CC(C)(C)NS(=O)(=O)c1ccc(-c2cc(C(=O)NCC3(O)CCOCC3)c(C(F)(F)F)n2CC2CCCCC2)cc1C(C)(C)C [1/27]	12600	< 4.7	< 4.7	–	–	–
Cc1c(C(=O)N2CC3(COCC(=O)N3)C2)cc(-c2ccc(S(=O)(=O)NC(C)(C)C)c(C(F)(F)F)c2)n1CC1CCCCC1 [17/293]	1260	6.6	6.7	–	–	–
Cc1c(C(=O)NC2CCOCC2)cc(-c2ccc(S(=O)(=O)NC(C)(C)C)c(OC(F)F)c2)n1CC1CCCCC1 [17/106]	501	7.3	7.3	–	–	–
Cc1c(C(=O)NC2CCOCC2)cc(-c2cc3c(c(C(C)(C)C)c2)OCCC3=O)n1CC1CCCCC1 [17/104]	501	6.5	6.7	–	–	–
Cc1c(C(=O)NC2CCOCC2)cc(-c2ccc(S(=O)(=O)NC(C)(C)C)c(C(C)(C)C)c2)n1CC1CCCC1 [17/212]	–	–	–	631	6.2/7.3/7.4	6.2/7.3/7.4
Cc1c(C(=O)NCCC(C)(C)C(=O)O)cc(-c2ccc(S(=O)(=O)NC3(C#N)CC3)c(C(F)(F)F)c2)n1CC1CCCCC1 [17/361]	2000	6.4	6.4	–	–	–

Compound	IC50 [1, 2] [nM]	pIC50 (FF) (RORγ; [3])	pIC50 (REN) (RORγ; [4])	IC50 [1] [nM]	pIC50 (FF) (RORγ)	pIC50 (REN) (RORγ)
CCC(C)(C)NS(=O)(=O)c1ccc(-c2cc(C(=O)NCC(C)(C)O)c(C)n2CC2CCCCC2)cc1C(C)(C)C [9/11]	501	7.7	7.8	–	–	–
Cc1c(C(=O)NCC2(O)CCOCC2)cc(-c2ccc(S(=O)(=O)NC(C)(C)C)c3ccccc23)n1CC1CCCCC1 [17/239]	1000	7.9	8.1	–	–	–
Cc1c(C(=O)NCCc2noc(=O)[nH]2)cc(-c2ccc(S(=O)(=O)NC(C)(C)C)c(C(C)(C)O)c2)n1CC1CCCCC1 [17/333]	398	6.4	6.3	–	–	–
Cc1c(C(=O)NC2COC2)cc(-c2cc(C(C)(C)C)c3c(c2)C(C)(C)CC(=O)N3)n1CC1CCCCC1 [1/18]	631	7.1	7.0	–	–	–
Cc1c(C(=O)N[C@@H]2CCCOC2)cc(-c2ccc(S(=O)(=O)NC(C)(C)C)c(C(F)(F)F)c2)n1CC1CCCCC1 [17/138]	200	7.1	7.3	–	–	–
Cc1c(C(=O)N2CC(C(C)(C)C(=O)O)C2)cc(-c2ccc(S(=O)(=O)NC(C)(C)C)c(C(F)(F)F)c2)n1CC1CCCCC1 [17/180]	631	7.1	7.2	–	–	–
Cc1c(C(=O)NC2CCOCC2)cc(-c2ccc(S(=O)(=O)NC(C)(C)C)c(OC(F)(F)F)c2)n1CC1CCCCC1 [17/166]	158	7.8	8.0	–	–	–
Cc1c(C(=O)NC2CCOCC2)cc(-c2ccc(C(=O)NCC3CCCCC3)c(C(C)(C)C)c2)n1CC1CCCCC1 [6/7]	–	–	–	1000	6.0/6.5/6.4	6.0/6.5/6.4
Cc1c(C(=O)N2CCOCC2)cc(-c2ccc(S(=O)(=O)NC(C)(C)C)c(C(F)(F)F)c2)n1CC1CCCCC1 [17/198]	–	–	–	501	6.3/6.8/6.9	6.3/6.8/6.9
Cc1c(C(=O)N[C@H]2C[C@H](C(=O)O)C2)cc(-c2ccc(S(=O)(=O)NC(C)(C)C)c(C(F)(F)F)c2)n1CC1CCCCC1 [17/220]	316	6.6	6.6	–	–	–
Cc1c(C(=O)NC2CCOCC2)cc(-c2ccc(S(=O)(=O)NC(C)C)c(C(F)(F)F)c2)n1CC1CCCCC1 [17/112]	316	7.4	7.5	–	–	–
CNS(=O)(=O)c1ccc(-c2cc(C(=O)NC3CCOCC3)c(C)n2CC2CCCCC2)cc1C(F)(F)F [17/110]	2000	6.3	6.5	–	–	–
COCC1(CNC(=O)c2cc(-c3cc(C(C)(C)C)cc(C4(C)CC4)c3)n(CC3CCCCC3)c2C)COC1 [17/47]	–	–	–	200	6.7/7.3/7.4	6.7/7.3/7.4
Cc1c(C(=O)NCCC(C)(C)C(=O)O)cc(-c2ccc(S(=O)(=O)NC(C)(C)C)c(C(F)(F)F)c2Cl)n1CC1CCCCC1 [17/289]	1260	7.1	7.2	–	–	–
Cc1c(C(=O)N2CC(C(=O)O)C2)cc(-c2cc(C(C)(C)C)c3c(c2)C2(CCO3)CC2)n1CC1CCCCC1 [17/52]	1580	6.7	6.7	–	–	–
Cc1c(C(=O)NC2CCOCC2)cc(-c2cc(S(=O)(=O)N3CCCCC3)c3ccccn23)n1CC1CCCCC1 [17/96]	3160	6.9	7.0	–	–	–
Cc1c(S(=O)(=O)NC(C)(C)C)ccc(-c2cc(C(=O)NC3CCOCC3)c(C)n2CC2CCCCC2)c1Cl [17/274]	251	7.9	7.9	–	–	–
